Measurements reported in patent US10869931B2, “Polyethylene glycol-modified angiogenesis inhibitor HM-1 and application thereof” (NANJING ANJI BIOLOGICAL TECHNOLOGY CO.,LTD, priority 2016, dated 2020).
Where “and” joins values, the source holds several entries; their conditions need not be identical. Equal entries are not always repeated.

Tests used:
[1] = tested on: mouse spleen lymphocytes; experiment: ConA-stimulated mouse spleen lymphocyte proliferation (MTT); type: cell-based; settings: 20 μg/mL, ConA 5 μg/mL, 48 h
Protocol: Tris-NH4Cl was used to break the red blood cells, and the cells were allowed to stand in an ice water bath for 4 min, centrifuged (1000 rpm×5 min), the supernatant was discarded, and the cells were washed twice with sterile PBS. Finally, cells were suspended in RPMI 1640 medium (5 mL) supplemented with 10% calf serum, counted, adjusted to a cell concentration of 5×10^6/mL, and cultured in a 96-well culture plate The test group consisted of blank control group, concanavalin A (ConA) group, dexamethasone (Dex) group (0.02 mg/mL) and mPEG-HM-1 group. […] The cells were cultured in a 37° C. cell culture chamber for 48 h. After the completion of the culture, 20 μL of MTT was added to each well, and the culture was continued for 4 h. Finally, all the solutions in each well were discarded, 100 μL of DMSO was added to each well, and the mixture was shaken and detected by a microplate reader OD value at 570 nm, 5 parallels per hole.

[2] = tested on: IL-1β production by mouse peritoneal macrophages; experiment: IL-1β production by mouse peritoneal macrophages (ELISA); type: cell-based; settings: 20 μg/mL, 48 h
Protocol: (1) IL-1β production: mice were intraperitoneally injected with 1 mL of broth (containing 6%) starch, and three days later, the mouse peritoneal macrophages were aseptically taken, washed twice with 1640 medium, and the cell concentration was adjusted to 2×10^6 cells/mL, inject into a 24-well culture plate, 1 mL per well, incubate for 3 hours in a cell culture incubator, shake once every 30 minutes, and allow the cells to fully adhere. Then, it was washed twice with the culture solution to remove unattached cells. The blank group was added with PBS, the positive group was added with the positive drug dexamethasone (Dex), the model group was not administered, to the experimental group was added low, medium and high three concentrations of mPEG-HM-1, and the culture was continued for 48 hours after the administration, 1000 r/min. Centrifuge for 15 min. The supernatant was taken as a sample for testing activity of IL-1β.
(2) Determination of IL-1β content: using R&D mouse IL-1β enzyme-linked immunosorbent assay kit, according to the kit instructions as follows: respectively, the tested samples and different concentrations of standard products, sealed with sealing tape the reaction well and incubated at 37° C. for 90 min; the plate was washed four times; the biotinylated antibody working solution (100 μL/well) was added, and the reaction well was sealed with sealing paper, incubated at 37° c. for 60 min; the plate was washed four times; Add the enzyme conjugate working solution (100 μL/well), seal the reaction well with sealing paper, incubate at 37° C. for 30 min; wash the plate four times; add color reagent (100 μL/well), incubate at 37° C. 10-20 min, add stop solution (100 μL/well), mix and measure OD450 value.

[3] = tested on: Gastric cancer tumor cells; experiment: MTT proliferation inhibition, gastric cancer cells; type: cell-based, human; set-up: concentration or dose not given beside the values; settings: 48 h
Protocol: (§1) The activity of mPEG-HM-1 to inhibit the growth of various tumor cells was examined by MTT assay. The tumor cells were cultured to a concentration of 90% or more in a 37° C., 5% CO2 incubator and collected by trypsinization. The cells were resuspended in the culture medium and counted under a microscope to adjust the cell concentration to 2×10^4 cells/mL, the cell suspension was inoculated into a 96-well plate at 100 μL/well and incubated overnight at 37° C. in a 5% CO2 incubator. mPEG-HM-1 was diluted with the culture solution to each predetermined concentration. Docetaxel is diluted to the final concentration with the culture medium. After the cells were fully attached, each dilution was added to a 96-well plate (100 μL/well). The mPEG-HM-1 dilution was added as a drug-administered group, and docetaxel was added as a positive control group, and a culture solution without any drug was used as a negative control group. Incubate for 48 h at 37° C. in a 5% CO2 incubator. 5 mg/mL of MTT was added to a 96-well plate at 20 μL per well, and incubation was continued for 4 hours. The medium was aspirated, dissolved in 150 μL of DMSO per well, and gently mixed by shaking for 10 min. The absorbance was measured at a measurement wavelength of 570 nm and a reference wavelength of 630 nm using a microplate reader, and the rate of growth inhibition (proliferation inhibition, PI) was calculated. The formula is as follows: PI (%)=1−administration group/negative group
(§2) The test was repeated 3 times independently, and the results obtained by the test were expressed as mean±SD, and the test results are shown in Table 15 to Table 18.

[4] = tested on: Brain tumor cells; experiment: MTT proliferation inhibition, brain tumor cells; type: cell-based, human; set-up: concentration or dose not given beside the values; settings: 48 h
Protocol: as §1, §2

[5] = tested on: Kidney cancer tumor cells; experiment: MTT proliferation inhibition, kidney cancer cells; type: cell-based, human; set-up: concentration or dose not given beside the values; settings: 48 h
Protocol: as §1, §2

[6] = tested on: Colorectal cancer tumor cells; experiment: MTT proliferation inhibition, colorectal cancer cells; type: cell-based, human; set-up: concentration or dose not given beside the values; settings: 48 h
Protocol: as §1, §2

[7] = tested on: Hemangioma tumor cells; experiment: MTT proliferation inhibition, hemangioma cells; type: cell-based, human; set-up: concentration or dose not given beside the values; settings: 48 h
Protocol: as §1, §2

[8] = tested on: Pancreatic cancer tumor cells; experiment: MTT proliferation inhibition, pancreatic cancer cells; type: cell-based, human; set-up: concentration or dose not given beside the values; settings: 48 h
Protocol: as §1, §2

[9] = tested on: Thyroid cancer tumor cells; experiment: MTT proliferation inhibition, thyroid cancer cells; type: cell-based, human; set-up: concentration or dose not given beside the values; settings: 48 h
Protocol: as §1, §2

[10] = tested on: Bladder Cancer tumor cells; experiment: MTT proliferation inhibition, bladder cancer cells; type: cell-based, human; set-up: concentration or dose not given beside the values; settings: 48 h
Protocol: as §1, §2

[11] = tested on: Esophageal cancer tumor cells; experiment: MTT proliferation inhibition, esophageal cancer cells; type: cell-based, human; set-up: concentration or dose not given beside the values; settings: 48 h
Protocol: as §1, §2

[12] = tested on: Prostate cancer tumor cells; experiment: MTT proliferation inhibition, prostate cancer cells; type: cell-based, human; set-up: concentration or dose not given beside the values; settings: 48 h
Protocol: as §1, §2

[13] = tested on: Liver cancer tumor cells; experiment: MTT proliferation inhibition, liver cancer cells; type: cell-based, human; set-up: concentration or dose not given beside the values; settings: 48 h
Protocol: as §1, §2

[14] = tested on: Ovarian cancer tumor cells; experiment: MTT proliferation inhibition, ovarian cancer cells; type: cell-based, human; set-up: concentration or dose not given beside the values; settings: 48 h
Protocol: as §1, §2

[15] = tested on: Lung cancer tumor cells; experiment: MTT proliferation inhibition, lung cancer cells; type: cell-based, human; set-up: concentration or dose not given beside the values; settings: 48 h
Protocol: as §1, §2

[16] = tested on: Cervical cancer tumor cells; experiment: MTT proliferation inhibition, cervical cancer cells; type: cell-based, human; set-up: concentration or dose not given beside the values; settings: 48 h
Protocol: as §1, §2

[17] = tested on: Breast cancer tumor cells; experiment: MTT proliferation inhibition, breast cancer cells; type: cell-based, human; set-up: concentration or dose not given beside the values; settings: 48 h
Protocol: as §1, §2

[18] = tested on: Head and neck cancer tumor cells; experiment: MTT proliferation inhibition, head and neck cancer cells; type: cell-based, human; set-up: concentration or dose not given beside the values; settings: 48 h
Protocol: as §1, §2

[19] = tested on: Melanoma tumor cells; experiment: MTT proliferation inhibition, melanoma cells; type: cell-based, human; set-up: concentration or dose not given beside the values; settings: 48 h
Protocol: as §1, §2

[20] = tested on: sarcoma tumor cells; experiment: MTT proliferation inhibition, sarcoma cells; type: cell-based, human; set-up: concentration or dose not given beside the values; settings: 48 h
Protocol: as §1, §2

[21] = tested on: Uterine cancer tumor cells; experiment: MTT proliferation inhibition, uterine cancer cells; type: cell-based, human; set-up: concentration or dose not given beside the values; settings: 48 h
Protocol: as §1, §2

C[C@@H]1C[C@H]2[C@@H]3CCC4=CC(=O)C=C[C@]4(C)[C@@]3(F)[C@@H](O)C[C@]2(C)[C@@]1(O)C(=O)CO [Dex, dexamethasone, reference compound]
A570 nm/A630 nm [1]: 0.3809 ± 0.1036 and 0.3832 ± 0.1042 and 0.3715 ± 0.1266 and 0.3905 ± 0.1094
Inhibition Rate of spleen lymphocyte proliferation [1]: 44.66% and 45.92% and 43.72%
inhibition at 20 µg/mL ([1]; Mus musculus, Lymphocyte, read-out: Inhibition Rate of spleen lymphocyte proliferation): 44.8%
IL-1β [2]: 361.03 ± 18.27 pg/mL and 368.23 ± 18.27 pg/mL and 361.45 ± 19.17 pg/mL and 359.92 ± 19.17 pg/mL
Inhibition Rate of IL-1β production [2]: 60.24% and 60.58% and 60.97%
inhibition at 20 µg/mL ([2]; Mus musculus, Peritoneal macrophage, read-out: Inhibition Rate of IL-1β production): 61.5%

CC(=O)O[C@@]12CO[C@@H]1C[C@H](O)[C@@]1(C)C(=O)[C@H](O)C3=C(C)[C@@H](OC(=O)[C@H](O)[C@@H](NC(=O)OC(C)(C)C)c4ccccc4)C[C@@](O)([C@@H](OC(=O)c4ccccc4)[C@H]21)C3(C)C [Docetaxel, reference compound]
rate of growth inhibition [3]: 77.34 ± 22.18%
rate of growth inhibition [4]: 59.23 ± 16.21%
rate of growth inhibition [5]: 72.93 ± 18.31%
rate of growth inhibition [6]: 74.59 ± 20.33%
rate of growth inhibition [7]: 56.92 ± 16.76%
rate of growth inhibition [8]: 71.13 ± 20.13%
rate of growth inhibition [9]: 56.21 ± 14.28%
rate of growth inhibition [10]: 46.72 ± 13.65%
rate of growth inhibition [11]: 60.18 ± 17.02%
rate of growth inhibition [12]: 45.62 ± 14.03%
rate of growth inhibition [13]: 66.70 ± 17.25%
rate of growth inhibition [14]: 85.12 ± 19.39%
rate of growth inhibition [15]: 68.23 ± 18.32%
rate of growth inhibition [16]: 80.21 ± 19.54%
rate of growth inhibition [17]: 65.31 ± 21.44%
rate of growth inhibition [18]: 49.23 ± 10.01%
rate of growth inhibition [19]: 83.49 ± 23.27%
rate of growth inhibition [20]: 51.31 ± 10.49%
rate of growth inhibition [21]: 80.25 ± 22.18%
